Experiment [1] has as its system PKA. As to conditions: cited from earlier work.
Experiment [2] addresses PKA-N-HiBiT (Homo sapiens, UniProt P17612). As to the kind of experiment: SDR assay, PKA-N-HiBiT. In general terms: With HiBiT, luminescence reflects the tagged protein that the partner subunit can reach.
Experiment [3] has as its target T1, ABL1-N-HiBiT kinase domain (Homo sapiens, UniProt P00519).
T1 sequence (P00519 233-500): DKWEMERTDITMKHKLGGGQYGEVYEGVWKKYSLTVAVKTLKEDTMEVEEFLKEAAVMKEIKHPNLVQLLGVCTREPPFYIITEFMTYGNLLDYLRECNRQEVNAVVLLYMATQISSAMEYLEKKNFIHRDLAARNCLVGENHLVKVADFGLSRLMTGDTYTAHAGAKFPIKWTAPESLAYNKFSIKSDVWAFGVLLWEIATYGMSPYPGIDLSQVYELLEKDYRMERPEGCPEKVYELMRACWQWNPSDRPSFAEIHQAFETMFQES
The experiment in a line: SDR assay, ABL1-N-HiBiT. Particulars: for ABL1 SDR pSDR50: heatmap data, 128 kinase inhibitors; for EC50: read-out: SDR Ave SDR50, average, unit inferred.

The mark [4] stands for this setting: annotation yes/no for kinase library compound, source not given.
[5] abbreviates: PKA-N-HiBiT qHTS, SDR assay, average maximal response.
Where [6] appears, read: ABL1-N-HiBiT qHTS, average maximal SDR response.
Where [7] appears, read: read-out: PKA SDR Ave SDR50, PKA-N-HiBiT qHTS, SDR assay, average.

Counter-ions that a name gives are not always drawn. Like-named read-outs stand apart in the source and are kept apart here.

Consider `Cc1ccc(C(=O)Nc2ccc(Oc3cc4cnn(C)c4cc3-c3cn[nH]c3)c(F)c2)c(=O)n1-c1ccc(F)cc1` [Merestinib], for which the “Annotated PKA activity” value in experiment [1] (setting [4]) is on record as “no”. Besides, the “SDR Ave Max Response” value in experiment [2] (setting [5]) was 8.78; in experiment [3] (setting [6]), 22.76.
Turning to `COc1ccc(-n2c(C)c([N+](=O)[O-])c3ccc(O)cc32)cc1` [ID-8], in experiment [1] (setting [4]), the “Annotated PKA activity” value is listed as “no”. The figures for the “SDR Ave Max Response” value in experiment [2] (setting [5]) and in experiment [3] (setting [6]) were 2.68 and 10.66, respectively.
Turning to `C[C@@H]1CCNC(=O)c2cc3ccc(C(=O)Nc4nc5ccccc5n4CCCN(C)C)cc3n21` [BIX-02565], the “Annotated PKA activity” value in experiment [1] (setting [4]) is “no”. In addition, the “SDR Ave Max Response” value in experiment [2] (setting [5]) amounted to 10.58; in experiment [3] (setting [6]), 21.22.
As to `C[C@@H]1CN(CC(=O)Nc2ccc3c(c2)Cc2cccc(-c4cc(=O)cc(N5CCOCC5)o4)c2S3)C[C@H](C)O1` [KU-60019], in experiment [1] (setting [4]), the “Annotated PKA activity” value is “no”. Moreover, the entries for the “SDR Ave Max Response” value in experiment [2] (setting [5]) and in experiment [3] (setting [6]) were -4.54 and -23.55, respectively.
On to `CN1CCN(CCCNc2ncc(Cl)c(-c3cc4c(C(=O)NC5CC5)cccc4s3)n2)CC1` [LY-2409881], for which, in experiment [1] (setting [4]), the “Annotated PKA activity” value is “no”. For the same compound, the “SDR Ave Max Response” value in experiment [2] (setting [5]) was -2.90; in experiment [3] (setting [6]), -19.98. The “ABL1 SDR pSDR50” value in experiment [3] is 5.21. Further, in experiment [3] (ABL1-N-HiBiT qHTS), the EC50 was found to be 7.98 µM.
For `O=C(Nc1ccc(OC(F)(F)F)cc1)c1sccc1NCc1ccnc2ccccc12` [OSI-930], in experiment [1] (setting [4]), the “Annotated PKA activity” value was “no”. Besides, the “SDR Ave Max Response” value in experiment [2] (setting [5]) is reported as 9.10; in experiment [3] (setting [6]) it was 17.46. In addition, the “ABL1 SDR pSDR50” value in experiment [3] is given as 5.04. Besides, the EC50 in experiment [3] (ABL1-N-HiBiT qHTS) came to 9.38 µM.
As to `COc1ccc(-n2c(SCC#N)nc3sc4c(c3c2=O)CCCC4)cc1` [Necrostatin-5], the “Annotated PKA activity” value in experiment [1] (setting [4]) was “no”. Further, the figures for the “SDR Ave Max Response” value in experiment [2] (setting [5]) and in experiment [3] were 1.51 and -3.84, respectively.
`CNC(=O)c1ccccc1Sc1ccc2c(/C=C/c3ccccn3)n[nH]c2c1` [Axitinib]: the “Annotated PKA activity” value in experiment [1] (setting [4]) is reported as “no”. Moreover, the “SDR Ave Max Response” value in experiment [2] (setting [5]) is recorded as -3.36.
On to `Nc1nc(NCCNc2ncc(-n3ccnc3)c(-c3ccc(Cl)cc3Cl)n2)ccc1[N+](=O)[O-]` [CT-98014], for which the “Annotated PKA activity” value in experiment [1] is “no”. The EC50 in experiment [2] is 11.7 µM; in experiment [2] (read-out: PKA SDR Ave SDR50), 12.9 µM; in experiment [3] (ABL1-N-HiBiT qHTS), 33.8 µM. Besides, the “SDR Ave Max Response” value in experiment [2] was -28.99; in experiment [3] (setting [6]) it was -28.48. In experiment [3], the “ABL1 SDR pSDR50” value turned out to be 4.54.
Consider `N#Cc1cccc(-c2c[nH]c3ncnc(N4CCOCC4)c23)c1` [PF-06447475], for which the “Annotated PKA activity” value in experiment [1] (setting [4]) is listed as “no”. The values for the EC50 in experiment [2], in experiment [2] (setting [7]) and in experiment [3] (ABL1-N-HiBiT qHTS) were 19.5 µM, 20.8 µM and 35.5 µM, respectively. The entries for the “SDR Ave Max Response” value in experiment [2] (setting [5]) and in experiment [3] (setting [6]) were 35.28 and 52.23, respectively. For the same compound, in experiment [3], the “ABL1 SDR pSDR50” value is listed as 4.46.
On to `Cn1sc(=O)n(Cc2ccccc2)c1=O` [TDZD 8], for which the “Annotated PKA activity” value in experiment [1] (setting [4]) is “no”. Further, the entries for the “SDR Ave Max Response” value in experiment [2] (setting [5]) and in experiment [3] (setting [6]) were 1.44 and -3.85, respectively.
For `COc1ccc2c(Oc3ccc(NC(=O)c4c(C)n(CC(C)(C)O)n(-c5ccccc5)c4=O)nc3)ccnc2c1` [AMG-458], the “Annotated PKA activity” value in experiment [1] (setting [4]) is “yes”. Also, the EC50 in experiment [2] and in experiment [2] (read-out: PKA SDR Ave SDR50) was 10.7 µM throughout. Moreover, the “SDR Ave Max Response” value in experiment [2] was -17.61; in experiment [3] (setting [6]) it was 38.29.
For `Cn1ncc(NC(=O)c2nc(-c3c(F)cccc3F)sc2N)c1N1CC[C@@H](N)[C@H](F)CC1` [GDC-0339], the “Annotated PKA activity” value in experiment [1] (setting [4]) was “no”. Also, the “SDR Ave Max Response” value in experiment [2] (setting [5]) was found to be 10.49; in experiment [3] (ABL1-N-HiBiT qHTS, SDR assay, average maximal response), 12.78.
As to `CO[C@H]1/C=C/O[C@@]2(C)Oc3c(C)c(O)c4c(O)c(c(/C=N\N5CCN(C6CCCC6)CC5)c(O)c4c3C2=O)NC(=O)C(C)=C/C=C/[C@H](C)[C@H](O)[C@@H](C)[C@@H](O)[C@@H](C)[C@H](OC(C)=O)[C@@H]1C` [Rifapentin], the “Annotated PKA activity” value in experiment [1] (setting [4]) was “no”. In addition, the “SDR Ave Max Response” value in experiment [2] (setting [5]) is listed as -45.77; in experiment [3] (setting [6]) it was -34.67. The EC50 in experiment [2] (setting [7]) amounted to 17.1 µM. In addition, in experiment [3], the “ABL1 SDR pSDR50” value is recorded as 4.28.
As for `S=C(NCc1ccc2c(c1)OCO2)N1CCN(c2ncnc3c2oc2ccccc23)CC1` [Amuvatinib], the “Annotated PKA activity” value in experiment [1] (setting [4]) is recorded as “no”. Further, the “SDR Ave Max Response” value was -0.36 in experiment [2] (setting [5]) and 8.96 in experiment [3] (setting [6]).
As to `Cc1cc(F)ccc1-c1nc(NCCNC(=N)NC#N)nc2c1ccc(=O)n2-c1c(F)cccc1F` [SB 706504], the “Annotated PKA activity” value in experiment [1] (setting [4]) is on record as “no”. The figures for the “SDR Ave Max Response” value in experiment [2] (setting [5]) and in experiment [3] (setting [6]) were 3.70 and 3.05, respectively.
Turning to TAE-684, the “Annotated PKA activity” value in experiment [1] (setting [4]) was “no”. The “SDR Ave Max Response” value in experiment [2] (setting [5]) was determined as 28.42. Further, the EC50 in experiment [2] (setting [7]) came out at 9.6 µM.
Turning to `CN1CCN(CCOc2cc(OC3CCOCC3)c3c(Nc4c(Cl)ccc5c4OCO5)ncnc3c2)CC1` [Saracatinib], the “Annotated PKA activity” value in experiment [1] (setting [4]) is on record as “no”. Further, the “SDR Ave Max Response” value in experiment [2] (setting [5]) is listed as 3.81.
`Cc1cc(-c2cc(O)ccc2Cl)cc2nnc(Nc3ccc(OCCN4CCCC4)cc3)nc12` [TG 100572 HCl]: in experiment [1] (setting [4]), the “Annotated PKA activity” value was “no”. Also, in experiment [2] (setting [5]), the “SDR Ave Max Response” value is recorded as -13.83.
Turning to `Cc1cn(-c2cccc(NC(=O)c3ccc(C)c(Nc4nccc(-c5cccnc5)n4)c3)c2)cn1` [NSC762949], the “Annotated PKA activity” value in experiment [1] (setting [4]) is given as “no”. Besides, in experiment [2] (setting [5]), the “SDR Ave Max Response” value is recorded as -2.45.
For the compound `Cc1cc(NC(=O)c2ccc(C)c(Nc3nccc(-c4cccnc4)n3)c2)cc(-n2cnc(C)c2)c1` [NSC762948], the “Annotated PKA activity” value in experiment [1] (setting [4]) is given as “no”. The “SDR Ave Max Response” value in experiment [2] (setting [5]) is reported as -6.66.
On to `COc1cc2c(cc1OC)-c1[nH]nc(Nc3cccc(F)c3)c1C2` [PDGF RTK inhibitor IV], for which the “Annotated PKA activity” value in experiment [1] (setting [4]) was “no”. Further, the “SDR Ave Max Response” value in experiment [2] (setting [5]) amounted to 5.85.
Consider `Cc1cn(-c2cc(F)cc(NC(=O)c3ccc(C)c(Nc4nccc(-c5cccnc5)n4)c3)c2)cn1` [NSC762950], for which the “Annotated PKA activity” value in experiment [1] (setting [4]) was “no”. Further, in experiment [2] (setting [5]), the “SDR Ave Max Response” value was -15.93.
With `CO[C@@H](C(=O)N1Cc2n[nH]c(NC(=O)c3ccc(N4CCN(C)CC4)cc3)c2C1)c1ccccc1` [Danusertib], the “Annotated PKA activity” value in experiment [1] (setting [4]) is recorded as “no”. Besides, the “SDR Ave Max Response” value in experiment [2] (setting [5]) is 4.52.
In the case of `C/N=c1\ncc2cc(-c3cc(NC(=O)NCCC(C)(C)C)c(F)cc3C)c(C)nc2[nH]1` [LY-3009120], the “Annotated PKA activity” value in experiment [1] (setting [4]) is listed as “no”. Besides, the “SDR Ave Max Response” value in experiment [2] (setting [5]) is on record as 2.67.
As to `Nc1ncccc1-c1nc2ccc(-c3ccccc3)nc2n1-c1ccc(C2(N)CCC2)cc1` [Miransertib], the “Annotated PKA activity” value in experiment [1] (setting [4]) is “no”.
With `CCN1CCN(Cc2ccc(NC(=O)Nc3ccc(Oc4cc(NC)ncn4)cc3)cc2C(F)(F)F)CC1` [AST-487], the “Annotated PKA activity” value in experiment [1] (setting [4]) was “yes”.
Turning to `CSc1cccc(Nc2ncc3cc(-c4c(Cl)cccc4Cl)c(=O)n(C)c3n2)c1` [PD-173955], the “Annotated PKA activity” value in experiment [1] (setting [4]) was “no”.
For the compound `Cc1cc(Nc2ncc3cc(-c4c(Cl)cccc4Cl)c(=O)n(C)c3n2)ccc1F` [PD 180970], in experiment [1] (setting [4]), the “Annotated PKA activity” value is reported as “no”. Also, the “SDR Ave Max Response” value in experiment [2] (setting [5]) is on record as -17.64.
Consider Tozasertib, for which the “Annotated PKA activity” value in experiment [1] (setting [4]) was “no”. For the same compound, in experiment [2], the “SDR Ave Max Response” value was -1.35.
